Test results published in patent publication US10189809B2, “SGC stimulators” (Ironwood Pharmaceuticals, Inc., priority 2010, dated 2019).
Read-outs that look alike come from different tables or passages of the source.

Tests used:
Thoracic aortic rings = test: Alternative thoracic aortic rings assay (Example 19b; resting tension as 100% inhibition); set-up: species or system rat; conditions: Rattus norvegicus, Table 10B; for inhibition at 1 µM: read-out: Percent Relaxation at 1 μM; for inhibition at 3 µM: read-out: Percent Relaxation at 3 μM; for inhibition at 10 µM: read-out: Percent Relaxation at 10 μM; for EC50: read-out: Aortic Ring EC50
Procedure: Thoracic aortic rings were dissected from anesthetized (isoflurane) male Sprague-Dawley rats weighing 275-299 g. Tissues were immediately transferred to ice-cold Krebs-Henseleit solution, which had been aerated with 95% O2 and 5% CO2 for 30 minutes. Following removal of connective tissue, aortic sections were cut into 4 rings (˜2 mm each) and suspended on 2 L-shaped hooks, with one hook fixed at the bottom of the tissue bath (Schuler Organ Bath, Harvard Apparatus) and the other connected to a force transducer (F30 Force Transducer, Harvard Apparatus). Baths contained Krebs Henseleit solution (10 mL) heated to 37° C. and aerated with 95% O2 and 5% CO2. Rings were brought to an initial tension of 0.3-0.5 g and gradually raised to a resting tension of 1.0 g over 60 minutes. Rings were rinsed with Krebs Henseleit solution (heated to 37° C. and aerated with 95% O2 and 5% CO2) at 15 minute intervals until a stable baseline was obtained. Rings were considered to be stable after a resting tension of 1.0 g was maintained (for approximately 10 minutes) without need for adjustment. Rings were then contracted with 100 ng/mL phenylephrine by adding 100 uL of a 10 μg/mL phenylephrine stock solution. Tissues achieving a stable contraction were then treated in a cumulative, dose dependent manner with test compounds prepared in dimethylsulfoxide (DMSO). In some cases, tissues were rinsed three times over a 5 minute period with Krebs-Heinseleit's solution (heated to 37° C. and aerated with 95% O2 and 5% CO2), allowed to stabilize at baseline, and then used for characterization of other test articles or DMSO effects. All data were collected using the HSE-ACAD software provided by Harvard Apparatus. […] EC50 values were calculated from concentration-response curves generated with GraphPad Prism Software.

[1] = target: T1, soluble guanylate cyclase (sGC) (Homo sapiens (Human), UniProt Q02108+Q02153); test: sGC-HEK-cGMP assay run in the absence of SNP (HEK WC assay); type: cell-based; conditions: compound at 30 μM, absence of SNP
Summary of the method: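 Intracellular cGMP was measured by LC/MS, using a standard curve, in HEK293 cells treated with compound for 10 min at 37° C after a 15 min 0.5 mM IBMX pretreatment, with no SNP present. Lysis and quench used 0.1 M HCl. EC50 values came from concentration-response fits.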

[2] = target: T1, soluble guanylate cyclase (sGC); test: sGC-HEK-cGMP assay run with SNP incubation (HEK WC assay); type: cell-based; conditions: for EC50: in the presence of 10 uM SNP; for HEK WC Assay (fold increase at 30 μM in the presence of 10 μM SNP): compound at 30 μM
Summary of the method: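 EC50 values derive from concentration-response curves of intracellular cGMP in HEK293 cells, which express sGC endogenously. Compound and sodium nitroprusside were co-incubated 10 min at 37 °C after a 15-min 0.5 mM IBMX step, with 0.1 M HCl lysis and 1% DMSO vehicle.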

[3] = read-out: HEK WC Assay (% Emax at 1 μM with 10 uM SNP)
[4] = read-out: HEK WC Assay (% Emax at 10 μM with 10 uM SNP)
[5] = read-out: HEK WC Assay (% Emax at 30 μM with 10 uM SNP)

T1 sequence (Q02153 whole entry): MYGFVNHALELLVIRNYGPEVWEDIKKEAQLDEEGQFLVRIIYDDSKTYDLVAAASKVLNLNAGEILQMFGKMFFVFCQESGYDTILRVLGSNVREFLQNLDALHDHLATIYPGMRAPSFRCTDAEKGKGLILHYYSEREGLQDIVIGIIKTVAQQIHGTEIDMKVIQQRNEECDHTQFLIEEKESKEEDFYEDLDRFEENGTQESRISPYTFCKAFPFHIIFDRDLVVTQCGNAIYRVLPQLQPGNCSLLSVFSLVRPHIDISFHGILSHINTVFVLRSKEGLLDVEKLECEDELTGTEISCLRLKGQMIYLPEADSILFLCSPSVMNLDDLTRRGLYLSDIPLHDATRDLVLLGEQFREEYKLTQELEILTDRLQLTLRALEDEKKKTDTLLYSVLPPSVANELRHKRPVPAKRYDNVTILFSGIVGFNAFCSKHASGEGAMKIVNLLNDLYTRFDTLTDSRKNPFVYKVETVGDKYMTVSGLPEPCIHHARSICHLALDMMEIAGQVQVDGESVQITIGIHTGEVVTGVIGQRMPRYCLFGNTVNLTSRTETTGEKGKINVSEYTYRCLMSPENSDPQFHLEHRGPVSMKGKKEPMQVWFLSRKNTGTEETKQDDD
T1 sequence (Q02108 whole entry): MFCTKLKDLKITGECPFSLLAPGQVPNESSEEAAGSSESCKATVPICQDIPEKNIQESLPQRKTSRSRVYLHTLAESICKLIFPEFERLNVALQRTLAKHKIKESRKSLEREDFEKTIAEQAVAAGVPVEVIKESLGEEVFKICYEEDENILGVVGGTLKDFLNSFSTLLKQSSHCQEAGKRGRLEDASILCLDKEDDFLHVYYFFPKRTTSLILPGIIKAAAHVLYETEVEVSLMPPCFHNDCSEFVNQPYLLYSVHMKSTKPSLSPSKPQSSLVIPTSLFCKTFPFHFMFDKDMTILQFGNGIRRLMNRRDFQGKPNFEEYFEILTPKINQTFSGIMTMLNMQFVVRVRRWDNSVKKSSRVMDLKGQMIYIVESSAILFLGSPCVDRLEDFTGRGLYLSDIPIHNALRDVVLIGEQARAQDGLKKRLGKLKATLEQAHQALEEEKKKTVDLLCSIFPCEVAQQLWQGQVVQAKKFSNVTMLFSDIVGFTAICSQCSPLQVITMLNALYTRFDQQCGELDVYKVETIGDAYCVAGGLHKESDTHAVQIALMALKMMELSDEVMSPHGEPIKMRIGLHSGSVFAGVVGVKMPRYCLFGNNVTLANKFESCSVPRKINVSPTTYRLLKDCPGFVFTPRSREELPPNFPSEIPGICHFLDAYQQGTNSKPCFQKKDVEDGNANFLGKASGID

SMILES	inhibition at 1 µM (Thoracic aortic rings)	inhibition at 3 µM (Thoracic aortic rings)	inhibition at 10 µM (Thoracic aortic rings)	EC50 (Thoracic aortic rings)	HEK WC Assay (fold increase at 30 μM in the absence of SNP) [1]	EC50 [2]	Emax [2, 3]	Emax [2, 4]	Emax [2, 5]	HEK WC Assay (fold increase at 30 μM in the presence of 10 μM SNP) [2]
O=C(Nc1cnc(-c2cc(-c3ccon3)n(Cc3ccccc3F)n2)nc1O)c1ccccc1 [Compound I-158]	10 to 20%	40 to 60%	80 to 100%	4000 to 8000 nM	C (C = 2 to <5 fold increase)	100 to 300 µM	0 to 10%	20 to 40%	20 to 40%	
Nc1nc(-c2cc(-c3ccon3)n(Cc3ccccc3F)n2)ncc1NC(=O)c1cnco1 [Compound I-188]	80 to 100%	100 to 120%	100 to 120%	< 2000 nM	E (E = 10 to <20 fold increase)	< 20 µM	40 to 60%	60 to 80%	60 to 80%	F (F = 20 to <30 fold increase)
Nc1nc(-c2cc(-c3ccon3)n(Cc3ccccc3F)n2)ncc1NC(=O)c1ccccn1 [Compound I-162]	100 to 120%	> 120%		< 2000 nM	E (E = 10 to <20 fold increase)	< 20 µM		80 to 100%	60 to 80%	G (G = 30 to <40 fold increase)
Nc1nc(-c2cc(-c3ccon3)n(Cc3ccccc3F)n2)ncc1Nc1nccs1 [Compound I-178]	60 to 80%	100 to 120%	100 to 120%	< 2000 nM	E (E = 10 to <20 fold increase)	< 20 µM	40 to 60%	80 to 100%	60 to 80%	E (E = 10 to <20 fold increase)
CC1(C(=O)Nc2cnc(-c3cc(-c4ccon4)n(Cc4ccccc4F)n3)nc2N)CC1 [Compound I-206]	20 to 40%	60 to 80%	80 to 100%	< 2000 nM	E (E = 10 to <20 fold increase)	< 20 µM	100 to 120%	100 to 120%	100 to 120%	F (F = 20 to <30 fold increase)
Cc1csc(-c2cc(-c3ncccn3)nn2Cc2ccccc2F)n1 [Compound I-294]	20 to 40%	60 to 80%	100 to 120%	< 2000 nM	B (B = 1 to <2 fold increase)	40 to 60 µM		20 to 40%	20 to 40%	D (D = 5 to <10 fold increase)
Nc1nc(-c2cc(-c3ccon3)n(Cc3ccccc3F)n2)ncc1N1CCOC1=O [Compound I-153]	60 to 80%	60 to 80%	80 to 100%	< 2000 nM	C (C = 2 to <5 fold increase)	< 20 µM		40 to 60%	60 to 80%	D (D = 5 to <10 fold increase)
CC(C)(C)C(=O)Nc1cnc(-c2cc(-c3ccon3)n(Cc3ccccc3F)n2)nc1N [Compound I-277]	60 to 80%	80 to 100%	100 to 120%	< 2000 nM	D (D = 5 to <10 fold increase)	< 20 µM	60 to 80%	80 to 100%	80 to 100%	E (E = 10 to <20 fold increase)
Nc1nc(-c2cc(-c3ccon3)n(Cc3ccccc3F)n2)ncc1N1CCCC1=O [Compound I-169]	40 to 60%	80 to 100%		< 2000 nM	C (C = 2 to <5 fold increase)	< 20 µM	20 to 40%	40 to 60%	60 to 80%	D (D = 5 to <10 fold increase)
Nc1nc(-c2cc(-c3ccon3)n(Cc3ccccc3F)n2)ncc1NC(=O)c1ccccc1Cl [Compound I-185]	60 to 80%	100 to 120%	100 to 120%	< 2000 nM	E (E = 10 to <20 fold increase)	< 20 µM	60 to 80%	80 to 100%	100 to 120%	E (E = 10 to <20 fold increase)
N#CC1(C(=O)Nc2cnc(-c3cc(-c4ccon4)n(Cc4ccccc4F)n3)nc2N)CC1 [Compound I-238]	80 to 100%	100 to 120%	100 to 120%	< 2000 nM	E (E = 10 to <20 fold increase)	< 20 µM	80 to 100%	100 to 120%	100 to 120%	E (E = 10 to <20 fold increase)
Nc1ccnc(-c2cc(-c3cnco3)n(Cc3ccccc3F)n2)n1 [Compound I-296]	20 to 40%	40 to 60%	80 to 100%		C (C = 2 to <5 fold increase)	< 20 µM		20 to 40%	60 to 80%	E (E = 10 to <20 fold increase)
CC(C)C(=O)Nc1cnc(-c2cc(-c3ccon3)n(Cc3ccccc3F)n2)nc1N [Compound I-165]	60 to 80%	80 to 100%	100 to 120%	< 2000 nM	D (D = 5 to <10 fold increase)	< 20 µM	40 to 60%	80 to 100%	100 to 120%	F (F = 20 to <30 fold increase)
Nc1nc(-c2cc(-c3ncco3)n(Cc3ccccc3F)n2)ncc1NC(=O)c1ccccc1 [Compound I-186]	60 to 80%	80 to 100%	100 to 120%	< 2000 nM	D (D = 5 to <10 fold increase)	< 20 µM	60 to 80%	60 to 80%	80 to 100%	F (F = 20 to <30 fold increase)
